Article PMC4019449 (Annals of Clinical and Translational Neurology, 2014)

What was measured:
[1] = target: T1, GluN1/GluN2A-L812M receptors (Homo sapiens, UniProt Q05586+Q12879, L812M); assay: Agonist potency, TEVC recordings from Xenopus laevis oocytes, L812M mutant; format: cell-based
GluN1/GluN2A receptors = GluN1/GluN2A receptors (Homo sapiens, UniProt Q05586+Q12879); assay: Screening of FDA-approved NMDAR antagonists, TEVC oocyte recordings, wild type; format: cell-based
[2] = target: T1, GluN1/GluN2A-L812M receptors; format: cell-based
[3] = target: GluN1/GluN2A-N615K receptors (Homo sapiens, UniProt Q05586+Q12879, N615K); format: cell-based
seizures of the proband = assay: Antiepileptic treatment of the proband; format: in vivo, human
[4] = test system: animal models of epilepsy; conditions: wide range of animal models of epilepsy; cited from earlier work
[5] = used in children; cited from earlier work
[6] = read-out: percent maximal inhibition

## NCC(=O)O [Glycine]
[1]; L812M compared with wild type
  reduction in EC50 (increased potency), GluN2A-L812M vs wild type: eightfold
[1]; read-out: Glycine EC50, L812M, in the presence of 100 μmol/L glutamate, -40 mV
  EC50: 0.14 ± 0.01 µM

## NC12CC3CC(CC(C3)C1)C2 [Amantadine]
GluN1/GluN2A receptors
  IC50: 110 ± 11 µM
GluN1/GluN2A receptors; [6]
  inhibition at 1000 µM: 94%
[2]
  IC50: 113 ± 5.1 µM
[2]; [6]
  inhibition at 1000 µM: 88%
[3]
  IC50: 458 ± 25 µM
[3]; [6]
  inhibition at 1000 µM: 76%

## CC12CC3CC(C)(C1)CC(N)(C3)C2 [Memantine]
GluN1/GluN2A receptors; [6]
  inhibition at 100 µM: 89%
[2]; [6]
  inhibition at 100 µM: 87%
[3]; [6]
  inhibition at 100 µM: 69%
Seizures of the proband; memantine treatment
  cognitive ability: remained unchanged
Seizures of the proband; postmemantine EEG, wakefulness and sleep
  interictal EEG after treatment: no asymmetries or epileptiform discharges
Seizures of the proband; upon memantine treatment
  myoclonic jerks: ceased
Seizures of the proband; ~0.5 mg/kg per day
  side effects: without side effects
[4]
  anticonvulsant effects: anticonvulsant effects
[5]
  toxicity in children: without toxicity

## CN1CC[C@@]23CCCC[C@@H]2[C@@H]1Cc1ccc(O)cc13 [Dextrorphan]
GluN1/GluN2A receptors
  IC50: 1.9 ± 0.3 µM
GluN1/GluN2A receptors; [6]
  inhibition at 30 µM: 92%
[2]
  IC50: 6.1 ± 1.3 µM
[2]; [6]
  inhibition at 30 µM: 85%
[3]
  IC50: 0.34 ± 0.06 µM
[3]; [6]
  inhibition at 30 µM: 96%

## COc1ccc2c(c1)[C@]13CCCC[C@@H]1[C@H](C2)N(C)CC3 [Dextromethorphan]
GluN1/GluN2A receptors; [6]
  inhibition at 300 µM: 88%
[2]
  IC50: 33 ± 4.8 µM
[2]; [6]
  inhibition at 300 µM: 91%
[3]
  IC50: 9 ± 1.3 µM
[3]; N615K compared with wild type
  enhanced potency on N615K-containing NMDARs in comparison to wild-type NMDARs: twofold
[3]; [6]
  inhibition at 300 µM: 92%
